Experimental data from ChEMBL document CHEMBL1201862, “PubChem BioAssay data set” (2004).
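In this assay, cells in 96-well plates receive the compound at five concentrations for 48 hours. Endpoints are linearly interpolated between the surrounding concentrations. GI50: concentration for 50% inhibition of growth.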 Calls of active or inactive are those of the source. Rule as the data show it: active = GI50 up to about 1.1 µM and inactive = higher.

How the values were obtained:
Assay in all cases: NCI tumour cell line growth inhibition, 48 h
786-0 = tested on: 786-0
A498 = tested on: A498
A549 = tested on: A549
ACHN = tested on: ACHN
BT-549 = tested on: BT-549
CAKI-1 = tested on: CAKI-1
CCRF-CEM = tested on: CCRF-CEM
COLO 205 = tested on: COLO 205
DU-145 = tested on: DU-145
EKVX = tested on: EKVX
HCC 2998 = tested on: HCC 2998
HCT-116 = tested on: HCT-116
HCT-15 = tested on: HCT-15
HL-60 = tested on: HL-60
HOP-62 = tested on: HOP-62
HOP-92 = tested on: HOP-92
HT-29 = tested on: HT-29
Hs-578T = tested on: Hs-578T
IGROV-1 = tested on: IGROV-1
K562 = tested on: K562
KM12 = tested on: KM12
LOX IMVI = tested on: LOX IMVI
M14 = tested on: M14
MCF7 = tested on: MCF7
MDA-MB-231 = tested on: MDA-MB-231
MDA-MB-435 = tested on: MDA-MB-435
MDA-N = tested on: MDA-N
Malme-3M = tested on: Malme-3M
NCI-H226 = tested on: NCI-H226
NCI-H23 = tested on: NCI-H23
NCI-H460 = tested on: NCI-H460
NCI-H522 = tested on: NCI-H522
NCI/ADR-RES = tested on: NCI/ADR-RES
OVCAR-3 = tested on: OVCAR-3
OVCAR-4 = tested on: OVCAR-4
OVCAR-5 = tested on: OVCAR-5
OVCAR-8 = tested on: OVCAR-8
PC-3 = tested on: PC-3
RPMI-8226 = tested on: RPMI-8226
SF-268 = tested on: SF-268
SF-295 = tested on: SF-295
SF-539 = tested on: SF-539
SK-MEL-28 = tested on: SK-MEL-28
SK-MEL-2 = tested on: SK-MEL-2
SK-MEL-5 = tested on: SK-MEL-5
SN12C = tested on: SN12C
SNB-19 = tested on: SNB-19
SNB-75 = tested on: SNB-75
SR = tested on: SR
SW-620 = tested on: SW-620
T47D = tested on: T47D
TK-10 = tested on: TK-10
U-251 = tested on: U-251
UACC-257 = tested on: UACC-257
UACC-62 = tested on: UACC-62
UO-31 = tested on: UO-31
MOLT-4 = tested on: MOLT-4
RXF 393 = tested on: RXF 393
SK-OV-3 = tested on: SK-OV-3

SMILES: Cc1nc2ccccc2[nH]/c1=N/Nc1ccccc1
- GI50 (786-0): 25.2 µM (inactive)
- GI50 (A498): 31.8 µM (inactive)
- GI50 (A549): 21.5 µM (inactive)
- GI50 (ACHN): 30.5 µM (inactive)
- GI50 (BT-549): 20.7 µM (inactive)
- GI50 (CAKI-1): 27 µM (inactive)
- GI50 (CCRF-CEM): 4.23 µM (inactive)
- GI50 (COLO 205): 0.108 µM (active)
- GI50 (DU-145): 22.7 µM (inactive)
- GI50 (EKVX): 4.17 µM (inactive)
- GI50 (HCC 2998): 38.9 µM (inactive)
- GI50 (HCT-116): 25.8 µM (inactive)
- GI50 (HCT-15): 18.9 µM
- GI50 (HL-60): 11.7 µM (inactive)
- GI50 (HOP-62): 23.3 µM (inactive)
- GI50 (HOP-92): 3.8 µM (inactive)
- GI50 (HT-29): 0.0417 µM (active)
- GI50 (Hs-578T): 31.1 µM (inactive)
- GI50 (IGROV-1): 3.73 µM (inactive)
- GI50 (K562): 17.9 µM (inactive)
- GI50 (KM12): 14.5 µM (inactive)
- GI50 (LOX IMVI): 23.3 µM (inactive)
- GI50 (M14): 20.2 µM (inactive)
- GI50 (MCF7): 12.3 µM (inactive)
- GI50 (MDA-MB-231): 28 µM (inactive)
- GI50 (MDA-MB-435): 14.8 µM (inactive)
- GI50 (MDA-N): 19.5 µM (inactive)
- GI50 (Malme-3M): 20.3 µM (inactive)
- GI50 (NCI-H226): 18.3 µM (inactive)
- GI50 (NCI-H23): 18.1 µM (inactive)
- GI50 (NCI-H460): 35.6 µM (inactive)
- GI50 (NCI-H522): 26.1 µM (inactive)
- GI50 (NCI/ADR-RES): 15 µM (inactive)
- GI50 (OVCAR-3): 14 µM (inactive)
- GI50 (OVCAR-4): 9.66 µM (inactive)
- GI50 (OVCAR-5): 26.7 µM (inactive)
- GI50 (OVCAR-8): 20.3 µM (inactive)
- GI50 (PC-3): 26.1 µM (inactive)
- GI50 (RPMI-8226): 8.2 µM (inactive)
- GI50 (SF-268): 27.6 µM (inactive)
- GI50 (SF-295): 18.6 µM (inactive)
- GI50 (SF-539): 44.5 µM (inactive)
- GI50 (SK-MEL-28): 26.5 µM (inactive)
- GI50 (SK-MEL-2): 30.4 µM (inactive)
- GI50 (SK-MEL-5): 14 µM (inactive)
- GI50 (SN12C): 26.4 µM (inactive)
- GI50 (SNB-19): 45.1 µM (inactive)
- GI50 (SNB-75): 18.1 µM (inactive)
- GI50 (SR): 19.3 µM (inactive)
- GI50 (SW-620): 40.6 µM (inactive)
- GI50 (T47D): 2.11 µM (inactive)
- GI50 (TK-10): > 100 µM (inactive)
- GI50 (U-251): 48.3 µM (inactive)
- GI50 (UACC-257): 57.9 µM (inactive)
- GI50 (UACC-62): 16.3 µM (inactive)
- GI50 (UO-31): 18.8 µM (inactive)

SMILES: COC(=O)/N=[N+](\[O-])C(c1ccc(Cl)cc1)c1ccc(Cl)cc1
- GI50 (786-0): 27.1 µM (inactive)
- GI50 (A498): 31.8 µM (inactive)
- GI50 (A549): 40.1 µM (inactive)
- GI50 (BT-549): 53.8 µM (inactive)
- GI50 (CAKI-1): 10.1 µM (inactive)
- GI50 (CCRF-CEM): 28.4 µM (inactive)
- GI50 (COLO 205): 23.9 µM (inactive)
- GI50 (DU-145): 29.1 µM (inactive)
- GI50 (EKVX): 25.2 µM (inactive)
- GI50 (HCC 2998): 32 µM (inactive)
- GI50 (HCT-116): 23.8 µM (inactive)
- GI50 (HCT-15): 30.8 µM
- GI50 (HL-60): 20.7 µM (inactive)
- GI50 (HT-29): 51.6 µM (inactive)
- GI50 (Hs-578T): 36.4 µM (inactive)
- GI50 (IGROV-1): 40.1 µM (inactive)
- GI50 (K562): 49.1 µM (inactive)
- GI50 (KM12): 32.2 µM (inactive)
- GI50 (LOX IMVI): 15.7 µM (inactive)
- GI50 (M14): 31.3 µM (inactive)
- GI50 (MCF7): 33.9 µM (inactive)
- GI50 (MDA-MB-231): 1.75 µM (inactive)
- GI50 (MDA-MB-435): 38.1 µM (inactive)
- GI50 (MDA-N): 47.5 µM (inactive)
- GI50 (MOLT-4): 39.7 µM (inactive)
- GI50 (Malme-3M): 51.9 µM (inactive)
- GI50 (NCI-H226): 21.9 µM (inactive)
- GI50 (NCI-H23): 32 µM (inactive)
- GI50 (NCI-H460): 38.9 µM (inactive)
- GI50 (NCI-H522): 32.6 µM (inactive)
- GI50 (NCI/ADR-RES): 38.2 µM (inactive)
- GI50 (OVCAR-3): 57.7 µM (inactive)
- GI50 (OVCAR-4): 42.6 µM (inactive)
- GI50 (OVCAR-5): 80.9 µM (inactive)
- GI50 (OVCAR-8): 36.3 µM (inactive)
- GI50 (PC-3): 27.2 µM (inactive)
- GI50 (RPMI-8226): 21.9 µM (inactive)
- GI50 (RXF 393): 27.2 µM (inactive)
- GI50 (SF-268): 69.5 µM (inactive)
- GI50 (SF-539): 65.3 µM (inactive)
- GI50 (SK-MEL-28): 50.4 µM (inactive)
- GI50 (SK-MEL-2): 34.1 µM (inactive)
- GI50 (SK-MEL-5): 24.7 µM (inactive)
- GI50 (SK-OV-3): 83.6 µM (inactive)
- GI50 (SN12C): 56.1 µM (inactive)
- GI50 (SNB-19): 50.4 µM (inactive)
- GI50 (SNB-75): 27.9 µM (inactive)
- GI50 (SR): 42 µM (inactive)
- GI50 (SW-620): 48.6 µM (inactive)
- GI50 (T47D): 20.8 µM (inactive)
- GI50 (TK-10): 36.1 µM (inactive)
- GI50 (U-251): 39.2 µM (inactive)
- GI50 (UACC-257): 34.6 µM (inactive)
- GI50 (UACC-62): 36.4 µM (inactive)
- GI50 (UO-31): 15.5 µM (inactive)

SMILES: OC(c1nc2ccccc2[nH]1)C(O)C(O)C(O)c1nc2ccccc2[nH]1 (configuration not stated)
- GI50 (786-0): > 100 µM (inactive)
- GI50 (A498): > 100 µM (inactive)
- GI50 (A549): > 100 µM (inactive)
- GI50 (ACHN): > 100 µM (inactive)
- GI50 (BT-549): > 100 µM (inactive)
- GI50 (CAKI-1): > 100 µM (inactive)
- GI50 (COLO 205): > 100 µM (inactive)
- GI50 (DU-145): > 100 µM (inactive)
- GI50 (EKVX): > 100 µM (inactive)
- GI50 (HCT-116): > 100 µM (inactive)
- GI50 (HCT-15): > 100 µM
- GI50 (HL-60): > 100 µM (inactive)
- GI50 (HOP-62): > 100 µM (inactive)
- GI50 (HOP-92): > 100 µM (inactive)
- GI50 (HT-29): > 100 µM (inactive)
- GI50 (Hs-578T): 91.4 µM (inactive)
- GI50 (IGROV-1): > 100 µM (inactive)
- GI50 (K562): > 100 µM (inactive)
- GI50 (KM12): > 100 µM (inactive)
- GI50 (LOX IMVI): > 100 µM (inactive)
- GI50 (M14): > 100 µM (inactive)
- GI50 (MCF7): > 100 µM (inactive)
- GI50 (MDA-MB-231): > 100 µM (inactive)
- GI50 (MDA-MB-435): > 100 µM (inactive)
- GI50 (MDA-N): > 100 µM (inactive)
- GI50 (MOLT-4): > 100 µM (inactive)
- GI50 (Malme-3M): > 100 µM (inactive)
- GI50 (NCI-H226): > 100 µM (inactive)
- GI50 (NCI-H460): > 100 µM (inactive)
- GI50 (NCI-H522): > 100 µM (inactive)
- GI50 (NCI/ADR-RES): > 100 µM (inactive)
- GI50 (OVCAR-3): > 100 µM (inactive)
- GI50 (OVCAR-4): > 100 µM (inactive)
- GI50 (OVCAR-5): > 100 µM (inactive)
- GI50 (OVCAR-8): > 100 µM (inactive)
- GI50 (PC-3): > 100 µM (inactive)
- GI50 (RPMI-8226): > 100 µM (inactive)
- GI50 (RXF 393): > 100 µM (inactive)
- GI50 (SF-268): > 100 µM (inactive)
- GI50 (SF-295): > 100 µM (inactive)
- GI50 (SF-539): > 100 µM (inactive)
- GI50 (SK-MEL-28): > 100 µM (inactive)
- GI50 (SK-MEL-2): > 100 µM (inactive)
- GI50 (SK-MEL-5): > 100 µM (inactive)
- GI50 (SK-OV-3): > 100 µM (inactive)
- GI50 (SN12C): > 100 µM (inactive)
- GI50 (SNB-19): > 100 µM (inactive)
- GI50 (SNB-75): > 100 µM (inactive)
- GI50 (SR): > 100 µM (inactive)
- GI50 (SW-620): > 100 µM (inactive)
- GI50 (T47D): > 100 µM (inactive)
- GI50 (TK-10): > 100 µM (inactive)
- GI50 (U-251): > 100 µM (inactive)
- GI50 (UACC-257): > 100 µM (inactive)
- GI50 (UACC-62): > 100 µM (inactive)
- GI50 (UO-31): > 100 µM (inactive)
